Laboratory results published in ChEMBL document CHEMBL4152253, “New developments in non-quinolone-based antibiotics for the inhibiton of bacterial gyrase and topoisomerase IV” (Eur J Med Chem, 2018).

Experiments:
DNA gyrase = DNA gyrase (Staphylococcus aureus, UniProt P0A0K8+P20831); experiment: Inhibition of Staphylococcus aureus DNA gyrase; type: protein-complex assay
DNA gyrase subunit B = DNA gyrase subunit B (Staphylococcus aureus, UniProt P0A0K8); experiment: Inhibition of Staphylococcus aureus GyrB

Row | IC50 (DNA gyrase) [µM] | IC50 (DNA gyrase subunit B) [µM] | Compound
1 | 15 | – | Cc1occc1C(=O)NNC(=S)NC(=O)c1ccccc1
2 | – | 0.009 | C=C1CC[C@@H](O[C@H]2C[C@@](O)([C@H](C)NC(=O)c3[nH]c(C)c(Cl)c3Cl)[C@H](O)[C@@H](C)O2)[C@@H]2C=C[C@H](C)C(/C(O)=C3\C(=O)[C@H](C(C)C)N([C@H]4O[C@H](C)[C@H](OC(N)=O)[C@H](OC(C)=O)[C@@H]4OC)C3=O)[C@@H]12 (some centres not stated) [KIBDELOMYCIN]
